Test results published in patent US5883107A, “Arginine mimic derivatives as enzyme inhibitors” (Corvas International, Inc., priority 1995, dated 1999).
pIC50: −log10 of the molar value. Where two headings read alike, the source gives them in different places.

What was measured:
thrombin = conditions: cited from earlier work
thrombosis = conditions: literature; cited from earlier work
trypsin = target: T1, trypsin (Bos taurus, UniProt P00760); experiment: In vitro enzyme assay for specificity: trypsin; type: biochemical, bovine; conditions: 0.5 nM enzyme, 30 minute incubation, read-out: IC50 for inhibition of trypsin
T1 construct: bovine pancreatic trypsin; purchased Worthington Biochemical Corp. TRL3; host or cells: bovine pancreas
T1 sequence (P00760 24-246): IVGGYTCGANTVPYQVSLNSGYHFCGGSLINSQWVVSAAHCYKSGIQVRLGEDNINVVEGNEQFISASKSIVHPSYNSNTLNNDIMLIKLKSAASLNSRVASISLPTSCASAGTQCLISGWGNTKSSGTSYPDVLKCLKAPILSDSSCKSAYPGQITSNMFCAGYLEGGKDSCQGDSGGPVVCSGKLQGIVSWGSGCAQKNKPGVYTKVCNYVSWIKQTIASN
Experimental: Trypsin catalytic activity was determined using the chromogenic substrate, S-2222 (benzoyl-L-isoleucine-L-glutamic acid-[gamma-methyl ester]-L-arginine-p-nitroanilide), which was obtained from Kabi Diagnostica. […] Purified (3×-crystallized; TRL3) bovine pancreatic trypsin was obtained from Worthington Biochemical Corp. The enzyme was reconstituted in deionized water and diluted into HBSA prior to assay in which the final concentration was 0.5 nM.

[1] = test system: thrombotic occlusion of the rat carotid artery; experiment: Rat model of FeCl3-induced platelet-dependent arterial thrombosis; type: in vivo; conditions: iv, 1 h, read-out: ED50, dose that prevents complete thrombotic occlusion in 50% of animals tested
[2] = test system: trypsin, plasmin and kallikrein; conditions: literature; cited from earlier work
[3] = literature; cited from earlier work
[4] = literature; cited from earlier work; remark: listed apart in the source
alpha-thrombin = alpha-thrombin (Homo sapiens, UniProt P00734); experiment: In vitro enzyme assay for specificity: thrombin; type: biochemical; conditions: first of the two values in the cell (two isomeric pair), or the only value; 0.25 nM enzyme, 30 minute incubation; read-out: IC50 for inhibition of alpha-thrombin amidolytic activity
Experimental: The buffer used for all assays was HBSA (10 mM HEPES, pH 7.5, 150 mM sodium chloride, 0.1% bovine serum albumin). […] Following a 30 minute incubation at ambient temperature, 50 microliters of the substrate at the concentrations specified below, was added to the wells yielding a final total volume of 200 microliters.
Thrombin catalytic activity was determined using the chromogenic substrate Pefachrome t-PA (CH3 SO2 -D-hexahydrotyrosine-glycyl-L-arginine-p-nitroanilide, obtained from Pentapharm Ltd.).

[5] = test system: atherosclerotic rabbit femoral artery; conditions: following mechanical damage; literature; cited from earlier work
[6] = first of the two values in the cell (two isomeric pair), or the only value

Molecule: CC(=O)N[C@H](Cc1ccccc1)C(=O)N1CCC[C@H]1C(=O)N[C@@H](CCCNC(=N)N)B(O)O [Ac-(D-Phe)-Pro-boroArg, acetyl-D-phenylalanyl-prolyl-boroarginine]
- inhibition of thrombin (in words) (thrombin; literature): inhibit thrombin by directly binding to the active site

Molecule: CC1CNc2c(cccc2S(=O)(=O)N[C@@H](CCCNC(=N)N)C(=O)N2CC[C@@H](C)C[C@@H]2C(=O)O)C1 (stereo partly drawn) [Argatroban, 2R,4R-4-methyl-1-[N-2-(3-methyl-1,2,3,4-tetrahydro-8-quinolinesulfonyl)-L-argininal]-2-piperdinecarboxylic acid]
- inhibition of thrombin (in words) (thrombin): bind directly to the active site of thrombin
- antithrombotic effect (in words) (thrombosis): potent antithrombotic agent in several experimental models of acute arterial thrombosis

Molecule: CCCC(CCC)C(=O)N[C@@H](CC(=O)OC)C(=O)N1CCC[C@H]1C(=O)N[C@H](C=O)CC1CCCN(C(=N)N)C1 (single isomer, unassigned) [Isomer 11B, alpha-N-(propylpentanoyl)-aspartyl(beta-methyl ester)-prolyl-3-[3-piperidyl-(N-guanidino)]-L-alaninal]
- pIC50 (trypsin; [6]): 7.17
- pIC50 (trypsin; second of the two values in the cell (two isomeric pair)): 6.95
- ED50 [1]: 5 mg/kg

Molecule: N=C(N)c1ccc(CC(=O)C(=O)O)cc1 [APPA, 4-amidinophenylpyruvic acid]
- selectivity (in words) [2]: non-selective, inhibiting trypsin, plasmin and kallikrein
- toxicity (in words) [3]: low toxicity
- pharmacokinetics (in words) [4]: favourable pharmacokinetics

Molecule: CS(=O)(=O)O.CS(=O)(=O)O.N=C(N)Nc1ccc(C(=O)Oc2ccc3cc(C(=N)N)ccc3c2)cc1 [FUT 175, 6-amidino-2-naphthyl-4-guanidinobenzoate dimethanesulfonate]
- selectivity (in words) [2]: non-selective

Molecule: N=C(N)NCCC[C@H](NC(=O)[C@@H]1CCCN1C(=O)[C@H](N)Cc1ccccc1)C(=O)CCl [P-PACK, D-phenylalanyl-prolyl-arginine-chloromethyl ketone]
- inhibition of thrombin (in words) (thrombin): inhibit thrombin by directly binding to the active site

Molecule: CCCC(CCC)C(=O)N[C@@H](Cc1nnn[nH]1)C(=O)N1CCC[C@H]1C(=O)N[C@H](C=O)CC1CCCN(C(=N)N)C1 (single isomer, unassigned) [Isomer 19B]
- pIC50 (alpha-thrombin): 8.51
- pIC50 (trypsin; [6]): 6.82

Molecule: Hirudin
- inhibition of thrombin (in words) (thrombin; literature): one of the most potent inhibitors of thrombin known
- antithrombotic effect (in words) (thrombosis): potent antithrombotic agent in vivo
- smooth muscle proliferation and restenosis (in words) [5]: effectively inhibit smooth muscle proliferation and the associated restenosis

Molecule: N=C(N)NCCC[C@@H](C=O)NC(=O)[C@@H]1CCCN1C(=O)[C@H](N)Cc1ccccc1 [D-Phe-Pro-Arg-a1, D-phenylalanyl-prolyl-argininal]
- inhibition of thrombin (in words) (thrombin): inhibit thrombin by directly binding to the active site

Molecule: CCCC(CCC)C(=O)N[C@@H](CC(=O)OC)C(=O)N1CCC[C@H]1C(=O)N[C@@H](C=O)CC1CCCN(C(=N)N)C1 (single isomer, unassigned) [Isomer 11B(D)]
- pIC50 (trypsin; [6]): 5.59
